In paper PMC11521309, “A novel 4-aminoquinoline chemotype with multistage antimalarial activity and lack of cross-resistance with PfCRT and PfMDR1 mutants” (PLOS Pathogens, 2024):
“And” between values parts separate entries of the source, which are not always exact repeats. Equal values may be shown once.

Assays:
[1] = system: P. berghei ookinete formation; experiment: In vitro inhibition of ookinete formation (nLuc conversion assay), 24 h; type: cell-based, Plasmodium berghei; settings: for % Inhibition of ookinete conversion: single assays
Description: To measure the inhibition of gamete conversion into ookinetes, a mutant luciferase-expressing P. berghei line (nLuc) was intraperitoneally injected into BALB/c mice. After 3–4 days, gametocyte-carrying blood samples were collected. In vitro compound testing was carried out by exposing 4 μL of infected blood mixed with 80 μL of culture medium (RPMI-1640 supplemented with 25 mM HEPES, 50 mg/L hypoxanthine, and 1% penicillin/streptomycin/neomycin at pH 8.3) to a range of drug concentrations for 24 hours at 21°C. Following the incubation, 20 μL of nLuc substrate (Nano-Glo Luciferase Assay System, Promega) was added to each well, and luminescence was measured in a luminometer. Increased light emission correlated with nLuc production and subsequent luciferase activity due to in vitro fertilization and ookinete conversion, as luciferase expression in this parasite line is regulated by the CTRP promoter that is ookinete-specific. Conversion inhibition was calculated as the percentage of luciferase activity of drug-exposed wells relative to untreated ones, from which IC50 values were interpolated.

[2] = system: Hz formation in ABS P. falciparum 3D7 parasites; experiment: Cellular heme fractionation assay; type: cell-based, Plasmodium falciparum
Description: A heme fractionation assay was used to measure the inhibition of Hz formation in cultured ABS P. falciparum 3D7 parasites as previously described. […] Late trophozoites were harvested after 32 hours of incubation by lysing RBCs with 0.05% saponin followed by multiple washes with 1 × PBS (pH 7.5) to remove any residual traces of hemoglobin. The parasite pellet was resuspended in PBS and the total number of trophozoites isolated was quantified using flow cytometry. Contents of the trophozoite pellet were released by hypotonic lysis and sonication. After centrifugation, treatments with HEPES buffer (pH 7.4), sodium dodecyl sulfate, pyridine, and NaOH, allowed us to separate the fractions corresponding to the different heme species of interest. A microplate reader was employed to measure the UV-visible spectrum of each heme fraction as a Fe(III)heme-pyridine complex. Fractions of undigested hemoglobin, “free” heme, and Hz were quantified using a heme standard curve based on the mass of each heme-Fe species per mature trophozoite (fg/cell), obtained by dividing the total amount of each heme species by the corresponding number of parasites in that fraction as determined by flow cytometry. Statistical comparisons and analyses for trends employed Students’ t-tests (GraphPad Prism version 9).

[3] = system: P. falciparum Dd2-Pol δ parasites; experiment: Single-step in vitro resistance selection; type: cell-based, Plasmodium falciparum
Description: Resistance to LDT-623 was assessed using single-step in vitro resistance selection protocols. […] Dd2-Pol δ is a hypermutable line with two point mutations in DNA polymerase δ that compromise its proofreading activity Cultures were monitored daily by thin blood smears until live parasites were no longer detectable. Drug-containing media was changed daily until parasites cleared, and every other day thereafter. Cultures were passaged once weekly by reducing the volume by 25% and replacing 1/3 of RBCs. Recrudescence monitoring was carried out twice a week by thin blood smears for 60 days. In the event of recrudescence, parasite susceptibility to LDT-623 was tested as described above.

[4] = 0.5x IC50, 32 h, single replicates
[5] = 0.5–3.0 × IC50 vs untreated control
[6] = 1x IC50, 32 h, single replicates
[7] = 2x IC50, 32 h, single replicates
[8] = 2.5x IC50, 32 h, single replicates
[9] = 3x IC50, 32 h, single replicates

## COc1cc2nccc(Nc3cccc(Oc4ccccc4)c3)c2cc1OC [LDT-623]
[1]; Log conc. (uM) 0.39794
  % Inhibition of ookinete conversion: 72.78% and 76.99% and 75.53% and 88.24% and 87.02% and 67.23% and 81.09%
[1]; Log conc. (uM) 0.69897
  % Inhibition of ookinete conversion: 88.00% and 95.67% and 86.70% and 98.41% and 98.02% and 73.84% and 94.25%
[1]; Log conc. (uM) 1
  % Inhibition of ookinete conversion: 99.93% and 99.92% and 99.83% and 99.70% and 99.35% and 98.41% and 99.32%
[1]; Log conc. (uM) -1.70927
  % Inhibition of ookinete conversion: 0.00%
[1]; Plasmodium berghei, read-out: IC50 inhibition of ookinete formation, mean, N = 7
  IC50: 1.5 µM
[2]; 0.5x IC50, 32 h, Mean
  %Hb: 6.49%
  %Heme: 9.94%
  %Hemozoin: 83.57%
  Hb Fe (fg/troph): 3.40 fg/troph
  Heme Fe (fg/troph): 5.28 fg/troph
  Hemozoin Fe (fg/troph): 44.40 fg/troph
  Total Fe (fg/troph): 54.33 fg/troph
[2]; [4]
  %Hb: 5.0225% and 6.9078% and 7.3751% and 6.6526%
  %Heme: 10.3876% and 10.3966% and 9.0005% and 9.9788%
  %Hemozoin: 84.5899% and 82.6957% and 83.6245% and 83.3686%
  Hb Fe (fg/troph): 2.7844 fg/troph and 3.6098 fg/troph and 3.8007 fg/troph and 3.8647 fg/troph
  Heme Fe (fg/troph): 5.7588 fg/troph and 5.4329 fg/troph and 4.6383 fg/troph and 5.7970 fg/troph
  Hemozoin Fe (fg/troph): 46.8963 fg/troph and 43.2142 fg/troph and 43.0950 fg/troph and 48.4315 fg/troph
  Total Fe (fg/troph): 55.44 fg/troph and 52.26 fg/troph and 51.53 fg/troph and 58.09 fg/troph
[2]; [5]
  effect on Hz levels: significant concentration-dependent decreases in the levels of Hz
  effect on undigested Hb: augmented percentage of undigested Hb was observed starting at 0.5 × IC50
  effect on “free” heme: statistically significant increase in “free” heme in a concentration-dependent manner
[2]; 1x IC50, 32 h, Mean
  %Hb: 7.02%
  %Heme: 10.55%
  %Hemozoin: 82.43%
  Hb Fe (fg/troph): 3.49 fg/troph
  Heme Fe (fg/troph): 5.57 fg/troph
  Hemozoin Fe (fg/troph): 44.22 fg/troph
  Total Fe (fg/troph): 54.30 fg/troph
[2]; [6]
  %Hb: 4.1032% and 6.0183% and 9.3168% and 8.6327%
  %Heme: 11.3186% and 11.3158% and 8.7646% and 10.7959%
  %Hemozoin: 84.5783% and 82.6659% and 81.9186% and 80.5714%
  Hb Fe (fg/troph): 2.0348 fg/troph and 3.3626 fg/troph and 5.0638 fg/troph and 4.9539 fg/troph
  Heme Fe (fg/troph): 5.6130 fg/troph and 6.3225 fg/troph and 4.7637 fg/troph and 6.1953 fg/troph
  Hemozoin Fe (fg/troph): 41.9435 fg/troph and 46.1884 fg/troph and 44.5239 fg/troph and 46.2360 fg/troph
  Total Fe (fg/troph): 49.59 fg/troph and 55.87 fg/troph and 54.35 fg/troph and 57.39 fg/troph
[2]; 2x IC50, 32 h, Mean
  %Hb: 5.86%
  %Heme: 12.64%
  %Hemozoin: 81.50%
  Hb Fe (fg/troph): 3.50 fg/troph
  Heme Fe (fg/troph): 6.66 fg/troph
  Hemozoin Fe (fg/troph): 43.79 fg/troph
  Total Fe (fg/troph): 54.83 fg/troph
[2]; [7]
  %Hb: 4.9454% and 8.0340% and 6.4023% and 4.0696%
  %Heme: 13.6029% and 11.9660% and 11.4824% and 13.5021%
  %Hemozoin: 81.4516% and 80.0000% and 82.1153% and 82.4284%
  Hb Fe (fg/troph): 2.6441 fg/troph and 4.5716 fg/troph and 3.2970 fg/troph and 2.3379 fg/troph
  Heme Fe (fg/troph): 7.2727 fg/troph and 6.8090 fg/troph and 5.9132 fg/troph and 7.7566 fg/troph
  Hemozoin Fe (fg/troph): 43.5476 fg/troph and 45.5226 fg/troph and 42.2872 fg/troph and 47.3530 fg/troph
  Total Fe (fg/troph): 53.46 fg/troph and 56.90 fg/troph and 51.50 fg/troph and 57.45 fg/troph
[2]; 2.5x IC50, 32 h, Mean
  %Hb: 6.89%
  %Heme: 13.61%
  %Hemozoin: 79.50%
  Hb Fe (fg/troph): 3.48 fg/troph
  Heme Fe (fg/troph): 7.40 fg/troph
  Hemozoin Fe (fg/troph): 43.37 fg/troph
  Total Fe (fg/troph): 54.23 fg/troph
[2]; [8]
  %Hb: 6.2660% and 6.4635% and 6.5388% and 8.2899%
  %Heme: 15.0745% and 13.6837% and 12.1024% and 13.5701%
  %Hemozoin: 78.6596% and 79.8529% and 81.3587% and 78.1400%
  Hb Fe (fg/troph): 3.4040 fg/troph and 3.6534 fg/troph and 3.3950 fg/troph and 4.4889 fg/troph
  Heme Fe (fg/troph): 8.1894 fg/troph and 7.7345 fg/troph and 6.2837 fg/troph and 7.3481 fg/troph
  Hemozoin Fe (fg/troph): 42.7326 fg/troph and 45.1360 fg/troph and 42.2421 fg/troph and 42.3122 fg/troph
  Total Fe (fg/troph): 54.33 fg/troph and 56.52 fg/troph and 51.92 fg/troph and 54.15 fg/troph
[2]; 3x IC50, 32 h, Mean
  %Hb: 8.06%
  %Heme: 18.59%
  %Hemozoin: 73.35%
  Hb Fe (fg/troph): 4.13 fg/troph
  Heme Fe (fg/troph): 9.47 fg/troph
  Hemozoin Fe (fg/troph): 38.59 fg/troph
  Total Fe (fg/troph): 52.57 fg/troph
[2]; [9]
  %Hb: 7.5148% and 8.7626% and 7.4537% and 8.4952%
  %Heme: 20.9692% and 17.6208% and 15.9272% and 19.8532%
  %Hemozoin: 71.5161% and 73.6166% and 76.6190% and 71.6515%
  Hb Fe (fg/troph): 3.8296 fg/troph and 4.6352 fg/troph and 3.9291 fg/troph and 4.5643 fg/troph
  Heme Fe (fg/troph): 10.6861 fg/troph and 9.3209 fg/troph and 8.3957 fg/troph and 10.6667 fg/troph
  Hemozoin Fe (fg/troph): 36.4452 fg/troph and 38.9409 fg/troph and 40.3879 fg/troph and 38.4969 fg/troph
  Total Fe (fg/troph): 50.96 fg/troph and 52.90 fg/troph and 52.71 fg/troph and 53.73 fg/troph
[3]; 3 × IC50 (1 μM), 1 × 10^9 parasites, 60 days
  recrudescence under constant drug pressure: No parasite recrudescence
[3]; constant drug pressure
  log minimum inoculum of resistance (MIR): higher than 9
[3]; drug pressure removed after day 7, both flasks
  day of recrudescence: 21 days
[3]; either flask
  IC50 of recrudescent bulk parasites vs Dd2-Polδ parent: no difference in IC50
